Measurements from patent publication US20230398130A1, “METHODS AND COMPOSITIONS FOR DIFFERENTIATING STEM CELLS” (Massachusetts Institute of Technology, priority 2020, published 2023).

How the values were obtained:
ISC-enriched organoids [1] = assay: Primary screen, 384-well 2.5-D organoid differentiation (ENR+CD, 6 days, Target Selective Inhibitor Library, vs whole-plate median): ATP (CellTiter-Glo 3D, CTG); settings: for Dose.FC.CTG: FC vs plate median; for SSMD.CTG: strictly standardized mean difference
ISC-enriched organoids [2] = assay: Primary screen, 384-well 2.5-D organoid differentiation (ENR+CD, 6 days): basal lysozyme secretion (LYZ.NS); assay type: cell-based, murine; settings: for Dose.FC.LYZ.NS: FC vs plate median; for SSMD.LYZ.NS: strictly standardized mean difference
From the text: (§1) High-throughput screening.

ISC-enriched organoids [3] = assay: Primary screen, 384-well 2.5-D organoid differentiation (ENR+CD, 6 days): carbachol-induced lysozyme secretion (LYZ.S); assay type: cell-based, murine; settings: for Dose.FC.LYZ.S: FC vs plate median; for Z.LYZ.S: standard z score; for SSMD.LYZ.S: strictly standardized mean difference
From the text: as §1

[4] = Dose 0.08 uM, standard z score of FC
[5] = Dose 0.40 uM, standard z score of FC
[6] = Dose 2.00 uM, standard z score of FC
[7] = Dose 10.00 uM, standard z score of FC
[8] = Dose 0.08 uM, primary screen, standard z score
[9] = Dose 0.40 uM, primary screen, standard z score
[10] = Dose 2.00 uM, primary screen, standard z score
[11] = Dose 10.00 uM, primary screen, standard z score
[12] = primary screen, 1st of the 4 dose lines of the treatment (dose not given)
[13] = primary screen, 2nd of the 4 dose lines of the treatment (dose not given)
[14] = primary screen, 3rd of the 4 dose lines of the treatment (dose not given)
[15] = primary screen, 4th of the 4 dose lines of the treatment (dose not given)

Compound COc1ccc(C[C@@H](C)NC[C@H](O)c2ccc(O)c(NC=O)c2)cc1.COc1ccc(C[C@@H](C)NC[C@H](O)c2ccc(O)c(NC=O)c2)cc1.O=C(O)/C=C/C(=O)O [Formoterol Hemifumarate] has a Dose.FC.CTG (ISC-enriched organoids [1]; Dose 0.08 uM, ENR+CD, 6 days) of 0.294 log 2 fold change, a Z.CTG (ISC-enriched organoids [1]; [4]) of 0.703 and a Dose.FC.CTG (ISC-enriched organoids [1]; Dose 0.40 uM, ENR+CD, 6 days) of 0.265 log 2 fold change. For the same compound, the Z.CTG (ISC-enriched organoids [1]; [5]) was 0.633, the Dose.FC.CTG (ISC-enriched organoids [1]; Dose 2.00 uM, ENR+CD, 6 days) was 0.242 log 2 fold change and the Z.CTG (ISC-enriched organoids [1]; [6]) was 0.578. For the same compound, the Dose.FC.CTG (ISC-enriched organoids [1]; Dose 10.00 uM, ENR+CD, 6 days) was 0.253 log 2 fold change, the Z.CTG (ISC-enriched organoids [1]; [7]) was 0.604 and the Dose.FC.LYZ.NS (ISC-enriched organoids [2]; Dose 0.08 uM, ENR+CD, 6 days) was 0.145 log 2 fold change. It also gave a Z.LYZ.NS (ISC-enriched organoids [2]; [4]) of 1.263, a Dose.FC.LYZ.NS (ISC-enriched organoids [2]; Dose 0.40 uM, ENR+CD, 6 days) of 0.073 log 2 fold change and a Z.LYZ.NS (ISC-enriched organoids [2]; [5]) of 0.638. For the same compound, the Dose.FC.LYZ.NS (ISC-enriched organoids [2]; Dose 2.00 uM, ENR+CD, 6 days) was 0.048 log 2 fold change, the Z.LYZ.NS (ISC-enriched organoids [2]; [6]) was 0.420 and the Dose.FC.LYZ.NS (ISC-enriched organoids [2]; Dose 10.00 uM, ENR+CD, 6 days) was 0.013 log 2 fold change. For the same compound, the Z.LYZ.NS (ISC-enriched organoids [2]; [7]) was 0.114, the Dose.FC.LYZ.S (ISC-enriched organoids [3]; Dose 0.08 uM, ENR+CD, 6 days) was 0.206 log 2 fold change and the Dose.FC.LYZ.S (ISC-enriched organoids [3]; Dose 0.40 uM, ENR+CD, 6 days) was 0.293 log 2 fold change. The Dose.FC.LYZ.S (ISC-enriched organoids [3]; Dose 2.00 uM, ENR+CD, 6 days) was 0.090 log 2 fold change and the Dose.FC.LYZ.S (ISC-enriched organoids [3]; Dose 10.00 uM, ENR+CD, 6 days) was 0.011 log 2 fold change.

With Cc1ccc(S(=O)(=O)NC(=O)NN2CC3CCCC3C2)cc1 (stereo not shown) [Gliclazide] the Z.CTG (ISC-enriched organoids [1]; [4]) was 0.386, the Z.CTG (ISC-enriched organoids [1]; [5]) was 0.128 and the Z.CTG (ISC-enriched organoids [1]; [6]) was 0.020. For the same compound, the Dose.FC.CTG (ISC-enriched organoids [1]; Dose 10.00 uM, ENR+CD, 6 days) was −0.092 log 2 fold change, the Z.CTG (ISC-enriched organoids [1]; [7]) was −0.219 and the Dose.FC.LYZ.NS (ISC-enriched organoids [2]; Dose 10.00 uM, ENR+CD, 6 days) was −0.035 log 2 fold change. For the same compound, the Dose.FC.LYZ.S (ISC-enriched organoids [3]; Dose 10.00 uM, ENR+CD, 6 days) was −0.060 log 2 fold change.

Work on COc1ccc(COc2ccc(Cc3cnc(N)nc3N)cc2OC)cc1 [GW2580] yielded a Dose.FC.CTG (ISC-enriched organoids [1]; Dose 0.08 uM, primary screen) of −0.042 log 2 fold change, a Z.CTG (ISC-enriched organoids [1]; [8]) of −0.101 and a Dose.FC.CTG (ISC-enriched organoids [1]; Dose 0.40 uM, primary screen) of −0.284 log 2 fold change. It also gave a Z.CTG (ISC-enriched organoids [1]; [9]) of −0.678, a Dose.FC.CTG (ISC-enriched organoids [1]; Dose 2.00 uM, primary screen) of 0.029 log 2 fold change and a Z.CTG (ISC-enriched organoids [1]; [10]) of 0.068. It also gave a Dose.FC.CTG (ISC-enriched organoids [1]; Dose 10.00 uM, primary screen) of −0.038 log 2 fold change, a Z.CTG (ISC-enriched organoids [1]; [11]) of −0.091 and a Dose.FC.LYZ.NS (ISC-enriched organoids [2]; Dose 0.08 uM, primary screen) of 0.006 log 2 fold change. For the same compound, the Z.LYZ.NS (ISC-enriched organoids [2]; [8]) was 0.056, the Dose.FC.LYZ.NS (ISC-enriched organoids [2]; Dose 0.40 uM, primary screen) was 0.014 log 2 fold change and the Z.LYZ.NS (ISC-enriched organoids [2]; [9]) was 0.118. The Dose.FC.LYZ.NS (ISC-enriched organoids [2]; Dose 2.00 uM, primary screen) was −0.060 log 2 fold change, the Z.LYZ.NS (ISC-enriched organoids [2]; [10]) was −0.525 and the Dose.FC.LYZ.NS (ISC-enriched organoids [2]; Dose 10.00 uM, primary screen) was −0.018 log 2 fold change. For the same compound, the Z.LYZ.NS (ISC-enriched organoids [2]; [11]) was −0.158, the Dose.FC.LYZ.S (ISC-enriched organoids [3]; Dose 0.08 uM, primary screen) was −0.013 log 2 fold change and the Dose.FC.LYZ.S (ISC-enriched organoids [3]; Dose 0.40 uM, primary screen) was 0.020 log 2 fold change. It also gave a Dose.FC.LYZ.S (ISC-enriched organoids [3]; Dose 2.00 uM, primary screen) of −0.060 log 2 fold change and a Dose.FC.LYZ.S (ISC-enriched organoids [3]; Dose 10.00 uM, primary screen) of −0.026 log 2 fold change.

C[C@@H]1CN(CC(=O)Nc2ccc3c(c2)Cc2cccc(-c4cc(=O)cc(N5CCOCC5)o4)c2S3)C[C@H](C)O1 [KU-60019] was tested, and the Z.CTG (ISC-enriched organoids [1]; [8]) was 0.273, the Z.CTG (ISC-enriched organoids [1]; [9]) was 0.094 and the Z.CTG (ISC-enriched organoids [1]; [10]) was 0.290. For the same compound, the Z.CTG (ISC-enriched organoids [1]; [11]) was −1.246, the SSMD.CTG (ISC-enriched organoids [1]; [12]) was 0.371 and the SSMD.CTG (ISC-enriched organoids [1]; [13]) was 0.118. For the same compound, the SSMD.CTG (ISC-enriched organoids [1]; [14]) was 0.175, the SSMD.CTG (ISC-enriched organoids [1]; [15]) was −0.916 and the SSMD.LYZ.NS (ISC-enriched organoids [2]; [12]) was 0.305. The SSMD.LYZ.NS (ISC-enriched organoids [2]; [13]) was −0.014, the SSMD.LYZ.NS (ISC-enriched organoids [2]; [14]) was −0.103 and the SSMD.LYZ.NS (ISC-enriched organoids [2]; [15]) was −0.570. The Z.LYZ.S (ISC-enriched organoids [3]; [12]) was 1.490, the Z.LYZ.S (ISC-enriched organoids [3]; [13]) was 0.474 and the Z.LYZ.S (ISC-enriched organoids [3]; [14]) was −0.317. It also gave a Z.LYZ.S (ISC-enriched organoids [3]; [15]) of −1.436, an SSMD.LYZ.S (ISC-enriched organoids [3]; [12]) of 0.938 and an SSMD.LYZ.S (ISC-enriched organoids [3]; [13]) of 0.312. For the same compound, the SSMD.LYZ.S (ISC-enriched organoids [3]; [14]) was −0.261 and the SSMD.LYZ.S (ISC-enriched organoids [3]; [15]) was −0.923.
